Results as given in patent US20250333397A1 (REMIX THERAPEUTICS INC., priority 2021, published 2025).
Read-outs that look alike come from different tables or passages of the source.

Columns and labels:
Type in all cases: cell-based, human
SMN2 mRNA = experiment: RT-qPCR splicing assay panel, SMN2 canonical junction (CJ) mRNA
Procedure, shortened: (§1)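 Junction-specific RT-qPCR read the canonical exon-exon junction and the compound-induced alternative-exon junction, normalized to GAPDH, GUSB or PPIA and then to DMSO (2^(-ΔΔCt)). Input was lysate from A673 or K562 cells exposed for 24 h to compound up to 10 uM.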

Target C mRNA = experiment: RT-qPCR splicing assay panel, Target C canonical junction (CJ) mRNA
Procedure, shortened: as §1

HTT mRNA = experiment: RT-qPCR splicing assay, HTT canonical (CJ) and alternative (AJ) junction mRNA; conditions: for AC50: read-out: HTT AJ (AC50, increase in AJ mRNA)
Procedure, shortened: as §1

MYB mRNA = experiment: RT-qPCR splicing assay, MYB canonical (CJ) and alternative (AJ) junction mRNA; conditions: for AC50: read-out: MYB AJ (AC50, increase in AJ mRNA)
Procedure, shortened: as §1

[1] = Homo sapiens, canonical junction (CJ) mRNA, RT-qPCR panel, Table 4A, read-out: SMN2, decrease in CJ mRNA levels, IC50
[2] = Homo sapiens, canonical junction (CJ) mRNA, RT-qPCR panel, Table 4A, read-out: Target C, decrease in CJ mRNA levels, IC50
[3] = Homo sapiens, 24 h, Table 3A, A673 or K562 cells, 24 h treatment
[4] = Homo sapiens, 24 h, Table 3A, A673 or K562 cells, 24 h treatment, read-out: HTT CJ (IC50, decrease in CJ mRNA)
[5] = Homo sapiens, canonical junction (CJ) mRNA, RT-qPCR panel, Table 4A, read-out: HTT, decrease in CJ mRNA levels, IC50
[6] = Homo sapiens, 24 h, Table 3A, A673 or K562 cells, 24 h treatment, read-out: MYB CJ (IC50, decrease in CJ mRNA)
[7] = Homo sapiens, canonical junction (CJ) mRNA, RT-qPCR panel, Table 4A, read-out: MYB, decrease in CJ mRNA levels, IC50
[8] = Homo sapiens, Table 4B, gene panel, read-out: SMN2 (IC50, decrease in CJ mRNA levels)
[9] = Homo sapiens, Table 4B, gene panel, read-out: Target C (IC50, decrease in CJ mRNA levels)
[10] = Homo sapiens, 24 h, Table 3B, A673 or K562 cells, 24 h treatment
[11] = Homo sapiens, 24 h, Table 3B, A673 or K562 cells, 24 h treatment, read-out: HTT CJ (IC50, decrease in CJ mRNA)
[12] = Homo sapiens, Table 4B, gene panel, read-out: HTT (IC50, decrease in CJ mRNA levels)
[13] = Homo sapiens, 24 h, Table 3B, A673 or K562 cells, 24 h treatment, read-out: MYB CJ (IC50, decrease in CJ mRNA)
[14] = Homo sapiens, Table 4B, gene panel, read-out: MYB (IC50, decrease in CJ mRNA levels)
[15] = canonical junction (CJ) mRNA, RT-qPCR panel, Table 4A, read-out: SMN2, decrease in CJ mRNA levels, IC50
[16] = Table 3A, A673 or K562 cells, 24 h treatment
[17] = Table 3A, A673 or K562 cells, 24 h treatment, read-out: HTT CJ (IC50, decrease in CJ mRNA)
[18] = canonical junction (CJ) mRNA, RT-qPCR panel, Table 4A, read-out: HTT, decrease in CJ mRNA levels, IC50
[19] = Table 3A, A673 or K562 cells, 24 h treatment, read-out: MYB CJ (IC50, decrease in CJ mRNA)
[20] = canonical junction (CJ) mRNA, RT-qPCR panel, Table 4A, read-out: MYB, decrease in CJ mRNA levels, IC50

Structure (SMILES)	IC50 (SMN2 mRNA; [1]) [nM]	IC50 (Target C mRNA; [2]) [nM]	AC50 (HTT mRNA; [3]) [nM]	IC50 (HTT mRNA; [4]) [nM]	IC50 (HTT mRNA; [5]) [nM]	AC50 (MYB mRNA; [3]) [nM]	IC50 (MYB mRNA; [6]) [nM]	IC50 (MYB mRNA; [7]) [nM]	IC50 (SMN2 mRNA; [8]) [nM]	IC50 (Target C mRNA; [9]) [nM]	AC50 (HTT mRNA; [10]) [nM]	IC50 (HTT mRNA; [11]) [nM]	IC50 (HTT mRNA; [12]) [nM]	AC50 (MYB mRNA; [10]) [nM]	IC50 (MYB mRNA; [13]) [nM]	IC50 (MYB mRNA; [14]) [nM]	other results
O=c1cc(-c2cc(O)c(-c3ccc(N4CC[C@@H](NC5CCC5)C4)nn3)cc2F)cc[nH]1 [Compound 220, 4-(4-{6-[(3R)-3-(cyclobutylamino)pyrrolidin-1-yl]pyridazin-3-yl}-2-fluoro-5-hydroxyphenyl)-1H-pyridin-2-one]	100 to 1000	100 to 1000	100 to 1000	100 to 1000	100 to 1000	100 to 1000	100 to 1000	100 to 1000									
COc1cc(-c2cc(O)c(-c3ccc(N4CCC(C)(NC5CCC5)C4)nn3)cc2F)cnn1 (stereo not shown) [Compound 310, 2-{6-[3-(cyclobutylamino)-3-methylpyrrolidin-1-yl]pyridazin-3-yl}-4-fluoro-5-(6-methoxypyridazin-4-yl)phenol]	< 100	100 to 1000	100 to 1000	< 100	< 100	100 to 1000	100 to 1000	100 to 1000									
Cc1cn2nc(-c3ccc(-c4ccc(N5CCC(NC6CCC6)C5)nn4)c(O)c3)cc(C)c2n1 (stereo not shown) [Compound 317]	100 to 1000	100 to 1000	100 to 1000	< 100	< 100	100 to 1000	100 to 1000	100 to 1000									
Oc1cc(-c2cc(OC(F)(F)F)ncn2)ccc1-c1ccc(N2CCC(NCC3CC3)C2)nn1 (stereo not shown) [Compound 455]	> 10000	> 10000			> 10000			> 10000									
CC(C)(C)NC1CCN(c2ccc(-c3cc4ccncc4cc3O)nn2)C1 (stereo not shown) [Compound 845]									< 100	100 to 1000	< 100	< 100	< 100	100 to 1000	100 to 1000	100 to 1000	
CN(C1CCC1)[C@@H]1CCN(c2ccc(-c3cc(F)c(-c4cn[nH]c4)cc3O)nn2)C1 [Compound 314, 2-{6-[(3R)-3-[cyclobutyl(methyl)amino]pyrrolidin-1-yl]pyridazin-3-yl}-4-fluoro-5-(1H-pyrazol-4-yl)phenol]	< 100	100 to 1000	100 to 1000	< 100	< 100	100 to 1000	1000 to 10000	1000 to 10000									
COc1cncc(-c2ccc(-c3ccc(N4CC[C@H](NC5CCC5)C4)nn3)c(O)c2)c1 [Compound 304]	1000 to 10000	1000 to 10000	1000 to 10000	1000 to 10000	1000 to 10000	1000 to 10000	1000 to 10000	1000 to 10000									
COc1cc(-c2ccc(-c3ccc(N4CC[C@@H](NC5CCC5)C4)nn3)c(O)c2)ncn1 [Compound 364, 2-{6-[(3R)-3-(cyclobutylamino)pyrrolidin-1-yl]pyridazin-3-yl}-5-(6-methoxypyrimidin-4-yl)phenol]	< 100	100 to 1000	100 to 1000	100 to 1000	100 to 1000	1000 to 10000	100 to 1000	100 to 1000									
Cc1nc(-c2ccc(-c3ccc(N4CCC(NC5CCC5)C4)nn3)c(O)c2)cs1 (stereo not shown) [Compound 412]		> 10000															IC50 (SMN2 mRNA; [15]): > 10000 nM; AC50 (HTT mRNA; [16]): > 10000 nM; IC50 (HTT mRNA; [17]): > 10000 nM; IC50 (HTT mRNA; [18]): > 10000 nM; AC50 (MYB mRNA; [16]): > 10000 nM; IC50 (MYB mRNA; [19]): > 10000 nM; IC50 (MYB mRNA; [20]): > 10000 nM
Cc1nc2cc(O)c(-c3ccc(N4CCC(NC(C)(C)C(C)C)C4)nn3)cc2o1 (stereo not shown) [Compound 862]									100 to 1000	1000 to 10000	100 to 1000	100 to 1000	100 to 1000	1000 to 10000	1000 to 10000	1000 to 10000	
COc1cc(-c2ccc(-c3ccc(N4CCC(NC5CC6(CCC6)C5)C4)nn3)c(O)c2)cnn1 (stereo not shown) [Compound 353, 5-(6-methoxypyridazin-4-yl)-2-[6-(3-{spiro[3.3]heptan-2-ylamino}pyrrolidin-1-yl)pyridazin-3-yl]phenol]	< 100	100 to 1000	100 to 1000	100 to 1000	100 to 1000	1000 to 10000	1000 to 10000	1000 to 10000									
Cc1nc2cc(O)c(-c3ccc(N4CCC(NC5CCC5)C4)nn3)cc2o1 (stereo not shown) [Compound 830]									> 10000	> 10000	> 10000	> 10000	> 10000	> 10000	> 10000	> 10000	
COc1cc(-c2ccc(-c3ccc(N4CCC(C)(NC(C)C)C4)nn3)c(O)c2)cnn1 (stereo not shown) [Compound 285, 2-{6-[3-(isopropylamino)-3-methylpyrrolidin-1-yl]pyridazin-3-yl}-5-(6-methoxypyridazin-4-yl)phenol]	< 100	< 100	< 100	< 100	< 100	100 to 1000	100 to 1000	100 to 1000									
Cc1nc(-c2ccc(-c3ccc(N4CCC(NC5CCC5)C4)nn3)c(O)c2)cs1 (stereo not shown) [Compound 413]																	IC50 (SMN2 mRNA; [15]): 1000 to 10000 nM; IC50 (Target C mRNA; canonical junction (CJ) mRNA, RT-qPCR panel, Table 4A, read-out: Target C, decrease in CJ mRNA levels, IC50): > 10000 nM; AC50 (HTT mRNA; [16]): 1000 to 10000 nM; IC50 (HTT mRNA; [17]): 1000 to 10000 nM; IC50 (HTT mRNA; [18]): 1000 to 10000 nM; AC50 (MYB mRNA; [16]): 1000 to 10000 nM; IC50 (MYB mRNA; [19]): 1000 to 10000 nM; IC50 (MYB mRNA; [20]): 1000 to 10000 nM
Cc1nc2cc(O)c(-c3ccc(N4CCC(C)(NC(C)(C)C)C4)nn3)cc2o1 (stereo not shown) [Compound 837]									100 to 1000	1000 to 10000	1000 to 10000	100 to 1000	100 to 1000	1000 to 10000	1000 to 10000	1000 to 10000	
Cc1nc2cc(O)c(-c3ccc(N4CC[C@@H](NC(C)(C)C(C)C)C4)nn3)cc2o1 [Compound 874]									< 100	100 to 1000	< 100	< 100	< 100	100 to 1000	100 to 1000	100 to 1000	
